{"source": "paper PMC8602566", "about": "(Frontiers in Oncology, 2021)", "key": {"[1]": {"assay": "Plasma and brain distribution study", "format": "in vivo", "conditions": "mice, single administration, i.v. 5 mg/kg or p.o. 10 mg/kg", "source_text": "Discovery of drugs for the treatment of GBM encounters formidable challenges to their ability to cross the blood–brain barrier (BBB) ([31]). Thus, we further investigated the distribution of DMC-HA to identify whether it has the ability to cross the BBB. […] In addition, stable and durable distribution of DMC-HA in the brain was observed after p.o. administration. Nevertheless, optimization for the balance among potency, selectivity, metabolic stability, and brain permeability in a single molecule was challenging. These preliminary results provide valuable information for further structure optimization of DMC-HA and a guidance for its following in vivo studies.\nFigure 5 Concentrations of DMC-HA in plasma and brain over time following a single administration in mice. Left, i.v. 5 mg/kg; right, p.o. 10 mg/kg."}, "HDAC4": {"biological_target": "HDAC4 (Homo sapiens, UniProt P56524)", "sequence (P56524 whole entry)": "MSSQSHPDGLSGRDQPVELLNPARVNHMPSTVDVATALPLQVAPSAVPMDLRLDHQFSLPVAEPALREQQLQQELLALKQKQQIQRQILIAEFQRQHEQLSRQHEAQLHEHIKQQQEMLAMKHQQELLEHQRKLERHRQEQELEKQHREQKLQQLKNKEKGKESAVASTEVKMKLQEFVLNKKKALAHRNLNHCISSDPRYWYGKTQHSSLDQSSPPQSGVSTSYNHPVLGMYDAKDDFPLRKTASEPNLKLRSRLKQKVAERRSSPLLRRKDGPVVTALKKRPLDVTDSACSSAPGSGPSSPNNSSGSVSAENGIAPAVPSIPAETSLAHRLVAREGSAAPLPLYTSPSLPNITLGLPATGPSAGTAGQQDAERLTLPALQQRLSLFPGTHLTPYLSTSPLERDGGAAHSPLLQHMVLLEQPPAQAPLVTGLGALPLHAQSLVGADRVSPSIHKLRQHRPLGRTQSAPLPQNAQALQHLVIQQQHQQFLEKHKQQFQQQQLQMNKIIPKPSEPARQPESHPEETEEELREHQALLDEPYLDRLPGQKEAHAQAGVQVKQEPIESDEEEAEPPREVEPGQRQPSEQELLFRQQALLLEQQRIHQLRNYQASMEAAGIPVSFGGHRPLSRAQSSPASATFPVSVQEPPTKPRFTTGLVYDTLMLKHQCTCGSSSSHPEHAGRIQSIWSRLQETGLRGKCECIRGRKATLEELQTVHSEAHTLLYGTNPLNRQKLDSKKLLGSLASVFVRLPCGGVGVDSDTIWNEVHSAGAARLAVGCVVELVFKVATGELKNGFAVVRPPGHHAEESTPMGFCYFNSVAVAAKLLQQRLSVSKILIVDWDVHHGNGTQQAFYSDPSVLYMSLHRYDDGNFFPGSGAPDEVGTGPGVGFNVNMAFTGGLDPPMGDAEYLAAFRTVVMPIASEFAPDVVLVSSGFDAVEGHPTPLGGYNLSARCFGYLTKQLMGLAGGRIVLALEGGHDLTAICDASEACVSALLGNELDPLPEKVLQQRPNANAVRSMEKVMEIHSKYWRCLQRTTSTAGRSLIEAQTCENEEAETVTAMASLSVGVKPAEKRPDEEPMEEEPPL", "assay": "HDACs inhibition assay, HDAC4", "experimental": "(§2) The inhibition assays for HDACs were carried out according to standard protocols. […] The reaction was stopped by the addition of 45 μl of 100 mM HEPES (pH 7.5) and 0.08% sodium dodecyl sulfate (SDS). The substrate and the product were then separated electrophoretically using a LabChip 3000 system (Caliper Life Sciences, Hopkinton, MA) with blue laser excitation and green fluorescence detection."}, "[2]": {"tested_on": "Human umbilical vein endothelial cells HUVEC", "assay": "MTT cell viability assay, HUVEC", "format": "cell-based", "method": "(§1) Cell viability was measured using the 3-(4,5-dimethylthiazol-2-yl)-2,5-diphenyltetrazolium bromide (MTT) assay and was expressed as a ratio to the absorbance value at 570 nm of the control cells."}, "HDAC6": {"biological_target": "HDAC6 (Homo sapiens, UniProt Q9UBN7)", "sequence (Q9UBN7 whole entry)": "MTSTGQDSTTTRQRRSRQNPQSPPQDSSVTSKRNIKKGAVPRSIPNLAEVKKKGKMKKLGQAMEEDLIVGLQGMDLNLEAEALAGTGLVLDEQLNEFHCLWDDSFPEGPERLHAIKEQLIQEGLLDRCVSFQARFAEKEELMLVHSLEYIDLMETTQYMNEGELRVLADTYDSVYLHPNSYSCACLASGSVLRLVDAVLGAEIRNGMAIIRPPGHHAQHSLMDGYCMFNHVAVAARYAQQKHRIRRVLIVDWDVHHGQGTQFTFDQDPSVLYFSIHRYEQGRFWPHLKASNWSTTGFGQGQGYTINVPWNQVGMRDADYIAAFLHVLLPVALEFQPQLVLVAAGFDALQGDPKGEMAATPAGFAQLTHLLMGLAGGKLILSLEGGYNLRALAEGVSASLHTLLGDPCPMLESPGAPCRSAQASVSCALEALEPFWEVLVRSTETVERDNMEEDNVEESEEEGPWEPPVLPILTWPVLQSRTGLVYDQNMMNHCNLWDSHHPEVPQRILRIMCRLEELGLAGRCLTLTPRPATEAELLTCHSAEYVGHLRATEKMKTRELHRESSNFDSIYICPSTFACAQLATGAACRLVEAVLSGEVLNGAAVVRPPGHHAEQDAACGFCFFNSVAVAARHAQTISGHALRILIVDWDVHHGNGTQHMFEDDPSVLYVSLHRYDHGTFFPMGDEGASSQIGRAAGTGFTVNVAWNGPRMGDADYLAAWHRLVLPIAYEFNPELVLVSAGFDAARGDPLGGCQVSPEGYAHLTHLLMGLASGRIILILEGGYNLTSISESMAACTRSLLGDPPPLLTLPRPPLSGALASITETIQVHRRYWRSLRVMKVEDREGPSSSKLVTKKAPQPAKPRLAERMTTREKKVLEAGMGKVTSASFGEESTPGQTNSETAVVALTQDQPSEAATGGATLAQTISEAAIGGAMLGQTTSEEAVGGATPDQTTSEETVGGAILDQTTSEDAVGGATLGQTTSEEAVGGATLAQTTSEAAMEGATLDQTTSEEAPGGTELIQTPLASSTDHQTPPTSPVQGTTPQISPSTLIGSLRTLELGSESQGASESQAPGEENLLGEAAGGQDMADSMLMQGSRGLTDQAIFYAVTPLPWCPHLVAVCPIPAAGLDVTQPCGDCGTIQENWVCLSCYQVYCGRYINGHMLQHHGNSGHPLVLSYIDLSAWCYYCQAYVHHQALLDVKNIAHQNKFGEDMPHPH", "assay": "HDACs inhibition assay, HDAC6", "experimental": "as §2"}, "U87 cells [3]": {"tested_on": "U87 cells", "assay": "LDH release", "format": "cell-based, Human", "conditions": "increasing concentrations, 48 h"}, "HDAC10": {"biological_target": "HDAC10 (Homo sapiens, UniProt Q969S8)", "sequence (Q969S8 whole entry)": "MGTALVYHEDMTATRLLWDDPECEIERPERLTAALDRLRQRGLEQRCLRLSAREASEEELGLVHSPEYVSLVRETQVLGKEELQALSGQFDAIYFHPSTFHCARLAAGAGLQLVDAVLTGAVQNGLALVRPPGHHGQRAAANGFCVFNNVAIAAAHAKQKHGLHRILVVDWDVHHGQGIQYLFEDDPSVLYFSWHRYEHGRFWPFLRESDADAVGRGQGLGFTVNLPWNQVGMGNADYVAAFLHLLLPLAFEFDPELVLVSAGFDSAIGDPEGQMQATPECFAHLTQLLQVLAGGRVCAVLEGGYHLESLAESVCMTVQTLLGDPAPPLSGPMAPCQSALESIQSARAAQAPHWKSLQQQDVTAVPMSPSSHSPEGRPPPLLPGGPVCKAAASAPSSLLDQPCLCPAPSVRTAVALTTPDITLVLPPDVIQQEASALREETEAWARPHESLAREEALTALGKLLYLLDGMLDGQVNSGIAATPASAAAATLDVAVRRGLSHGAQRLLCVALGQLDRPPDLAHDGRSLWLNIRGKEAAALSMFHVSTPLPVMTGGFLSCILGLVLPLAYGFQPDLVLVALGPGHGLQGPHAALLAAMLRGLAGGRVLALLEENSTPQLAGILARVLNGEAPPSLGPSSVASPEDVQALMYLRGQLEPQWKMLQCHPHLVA", "assay": "HDACs inhibition assay, HDAC10", "experimental": "as §2"}, "[4]": {"assay": "Hepatic microsome stability assay, mice", "format": "in vitro ADME", "conditions": "mouse liver microsomes, NADPH, 37°C, pH 7.4", "method": "Metabolic stability was assessed in the presence of human, mouse, and rat liver microsomes (XenoTech, Lenexa, KS, USA). All liquid dispenses and transfer steps were performed with the Freedom Evo automated liquid handler (Tecan US). Compound stock solutions were initially prepared in 100% DMSO and subsequently diluted in acetonitrile for the assay. The pH of the reactions was kept at 7.4 with potassium phosphate buffer. The reaction wells were prepared by adding microsomes to a well and allowed to warm to 37°C. Then, compound was added to each well. The reactions were […] by adding cofactor reduced nicotinamide adenine dinucleotide phosphate (NADPH) to the reaction well containing microsomes and compounds. Negative controls received buffer only. Immediately after reactions started, 0-min aliquots were promptly collected and mixed in a separate well with ice cold acetonitrile to quench the reactions. The remainder of the reaction volume was incubated at 37°C with shaking. An additional aliquot was collected at 60 min after the start of the reaction and promptly quenched with ice cold acetonitrile. Samples were vortexed and centrifuged at 3,500 rpm for 10 min. The amount of compound in the supernatant was determined by liquid chromatography–tandem mass spectrometry (LC/MS/MS) (Thermo Fischer Scientific, San Jose, CA, USA), and the percent of parent compound remaining after 60 min was calculated. Results are the mean of each reaction triplicate, normalized to the internal standard, and expressed as the percent of compound remaining after the incubation time.\nStructures that are active in vitro may not be potent in vivo due to their susceptibility to metabolism in the body. We then thoroughly examined the liver microsomal metabolic stability of DMC-HA across three different species (Table 3). […] In addition, the half-life of DMC-HA in human microsome is generally two to three times longer than those in mice and rats. Collectively, the in vitro liver microsomal stability of DMC-HA is favorable, guaranteeing its further in vivo studies."}, "SIRT1": {"biological_target": "SIRT1 (Homo sapiens, UniProt Q96EB6)", "sequence (Q96EB6 whole entry)": "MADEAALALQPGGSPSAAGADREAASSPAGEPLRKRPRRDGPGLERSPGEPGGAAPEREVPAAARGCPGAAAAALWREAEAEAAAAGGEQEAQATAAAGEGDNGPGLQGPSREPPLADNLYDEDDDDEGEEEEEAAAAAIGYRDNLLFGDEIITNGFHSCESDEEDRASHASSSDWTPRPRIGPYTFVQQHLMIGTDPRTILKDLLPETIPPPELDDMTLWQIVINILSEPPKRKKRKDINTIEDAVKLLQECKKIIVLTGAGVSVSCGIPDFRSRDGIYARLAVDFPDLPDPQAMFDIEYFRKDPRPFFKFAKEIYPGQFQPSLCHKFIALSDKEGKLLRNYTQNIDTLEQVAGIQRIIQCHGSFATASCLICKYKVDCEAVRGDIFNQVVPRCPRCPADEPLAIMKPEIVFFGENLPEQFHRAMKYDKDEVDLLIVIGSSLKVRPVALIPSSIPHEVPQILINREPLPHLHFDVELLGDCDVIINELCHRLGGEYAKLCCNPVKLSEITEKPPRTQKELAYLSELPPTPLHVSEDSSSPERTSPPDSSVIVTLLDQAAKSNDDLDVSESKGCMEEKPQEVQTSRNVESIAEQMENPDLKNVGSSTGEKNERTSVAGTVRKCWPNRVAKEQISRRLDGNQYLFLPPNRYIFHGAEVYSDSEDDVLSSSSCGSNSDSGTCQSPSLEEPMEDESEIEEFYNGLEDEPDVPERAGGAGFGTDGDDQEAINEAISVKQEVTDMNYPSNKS", "assay": "HDACs inhibition assay, SIRT1", "experimental": "as §2"}, "U87 cells [5]": {"tested_on": "U87 cells", "assay": "Cell apoptosis assay by flow cytometry (Annexin V-FITC/PI)", "format": "cell-based, Human", "conditions": "10 μM, Annexin V/PI (control 3.3%)", "method": "For apoptosis assays, 5 × 10^5 U87 cells were seeded into six-well plates for 24 h and treated with a range of concentrations of DMC-HA for 36 h. Annexin V-FITC/PI apoptosis detection kit was used to perform the apoptotic assay following the manufacturer’s instructions (Beyotime, Jiangsu, China). After treatment, 1 × 10^6 cells were washed using 1 ml binding buffer for three times, then centrifuged at 300×g and stained with 10 μl Annexin V-FITC solution at 37°C for 15 min. Before detecting, 5 μl PI solution was added to the samples, and the apoptotic cells were detected using flow cytometry (FACSCalibur BD, BD Biosciences, San Jose, CA, USA).\nTo further investigate the apoptotic effect of DMC-HA on GBM, we treated U87 cells with increasing concentrations of DMC-HA. After 48 h, the morphological changes of DMC-HA-treated U87 cells were observed, such as cell shrinking, rounding, and detachment (Figure 4A). […] To further confirm whether DMC-HA could induce apoptosis in U87 cells, cells were stained with Annexin V and PI after treatment with various concentrations of DMC-HA."}, "[6]": {"tested_on": "Human glioblastoma cell line U251", "assay": "MTT cell viability assay, U251", "format": "cell-based", "conditions": "U-251, MTT, 72 h, read-out: IC50 antiproliferative activity U251", "method": "as §1"}, "[7]": {"tested_on": "acetylated histone H3 in U87 cells", "assay": "Western blot analysis for H3-histone acetylation", "format": "cell-based, Human", "method": "U87 cells (5 × 10^5 cells/ml) in six-well plates were incubated with DMC-HA and lysed in radioimmunoprecipitation assay (RIPA) buffer containing protease and phosphatase inhibitors. Protein contents in the lysates were determined by Bradford’s assay, and 50 μg was separated by SDS polyacrylamide gel electrophoresis (SDS-PAGE) electrophoresis. Proteins were transferred to membranes and probed with human anti-acetylated H3 and anti-β actin antibodies as a loading control. Membranes were then labeled with the appropriate horseradish peroxidase (HRP)-conjugated immunoglobulin G (IgG), and protein bands were visualized using enhanced chemiluminescence. (Bio-Rad, Hercules, CA, USA).\nNext, DMC-HA-induced acetylation of histone H3 in living cells was analyzed using Western blot method."}, "[8]": {"tested_on": "Human colon carcinoma cell line SW-620", "assay": "MTT cell viability assay, SW-620", "format": "cell-based", "conditions": "SW-620, MTT, 72 h, read-out: IC50 antiproliferative activity SW-620", "method": "as §1"}, "[9]": {"tested_on": "Human lung cancer cell line A549", "assay": "MTT cell viability assay, A549", "format": "cell-based", "conditions": "A549, MTT, 72 h, read-out: IC50 antiproliferative activity A549", "method": "as §1"}}, "data": [{"smiles": "COc1cc(/C=C/C(=O)CC(=O)/C=C/c2ccc(/C=C/C(=O)NO)cc2)ccc1O", "note": "[DMC-HA]", "values": [{"measurement": "ability to cross the BBB", "setting": "[1]", "value": "can indeed penetrate the BBB"}, {"measurement": "Kp", "setting": "[1]; mouse, brain and plasma, other: intravenous and oral (i.v. and p.o. arms), over time, read-out: brain-to-plasma ratios", "value": "0.08 to 0.23"}, {"measurement": "IC50", "setting": "HDAC4", "value": "> 10", "unit": "µM"}, {"measurement": "IC50", "setting": "[2]; Homo sapiens, HUVEC, MTT, 72 h, normal cells, read-out: IC50 HUVEC", "value": "27.4 ± 3.94", "unit": "µM"}, {"measurement": "toxicity to human umbilical vein endothelial cells (HUVECs)", "setting": "[2]; in words", "value": "low toxicity"}, {"measurement": "IC50", "setting": "HDAC6", "value": 0.38, "unit": "µM"}, {"measurement": "LDH release / cell death", "setting": "U87 cells [3]", "value": "induces cell death in a dose-dependent manner"}, {"measurement": "IC50", "setting": "HDAC10", "value": 8.39, "unit": "µM"}, {"measurement": "Mice Liver Microsomal Stability T1/2", "setting": "[4]", "value": 32.7, "unit": "min"}, {"measurement": "microsomal CLint", "setting": "[4]", "value": 43.2, "unit": "µL/min/mg"}, {"measurement": "IC50", "setting": "SIRT1", "value": "> 10", "unit": "µM"}, {"measurement": "total apoptotic cells", "setting": "U87 cells [5]", "value": 90.0, "unit": "%"}, {"measurement": "IC50", "setting": "[6]", "value": "2.99 ± 0.48", "unit": "µM"}, {"measurement": "acetylation of histone H3, time dependence", "setting": "[7]; 5 μM, different times", "value": "increased in a time-dependent manner"}, {"measurement": "acetylation of histone H3, dose dependence", "setting": "[7]; various concentrations, 24 h", "value": "dose dependently increased the acetylation of histone H3"}, {"measurement": "IC50", "setting": "[8]", "value": "3.22 ± 0.3", "unit": "µM"}, {"measurement": "IC50", "setting": "[9]", "value": "5.33 ± 0.93", "unit": "µM"}]}]}
